According to patent US20260273252A1, “GROOVED MICRONEEDLES FOR PASSIVE AND ACTIVE DRUG DELIVERY” (Trustees of Tufts College, priority 2023, published 2026):

Assays:
[1] = test system: thermal nociception in rodents; test: Hot plate test, noxious thermal stimulus of 50 degrees Celsius (pilot studies); format: in vivo; conditions: for block of the antinociceptive effects of (2R,6R)-HNK by antagonist pretreatment: hot plate, given with (2R,6R)-HNK; for antinociceptive effects on thermal nociception (latency to lick a hind paw): 10 mg/kg i.p. for three consecutive days, hot plate 50 degrees Celsius, males, 24, 48 and 72 hours post treatment
Experimental: In addition, pilot studies were conducted to assess the antinociceptive potential of (2R,6R)-HNK (10 mg/kg intraperitoneal (i.p.) injection administered for three consecutive days) in response to a noxious thermal stimulus of 50 degrees Celsius on the hot plate apparatus. The latency to lick a hind paw was measured in males before and after (2R,6R)-HNK treatment at 24, 48, and 72 hours post treatment.

[2] = test system: PTSD symptoms in patients; conditions: cited from earlier work
gait function = test: Forced swim test, gait function; format: in vivo; conditions: compared with ketamine
[3] = test system: mice with a spinal nerve injury; conditions: 24 hours following a single injection; cited from earlier work
[4] = test system: rodent model for CRPS and postoperative pain; conditions: cited from earlier work
[5] = 6 times over a 2-week period, 0.5 mg/kg 40-min infusions, treatment resistant subjects

NS(=O)(=O)c1cccc2c1c([N+](=O)[O-])cc1nc(O)c(O)nc12 [NBQX]
block of the antinociceptive effects of (2R,6R)-HNK by antagonist pretreatment [1]: effectively block

CNC1(c2ccccc2Cl)CCCCC1=O (racemic) [ketamine]
median time to relapse after the cessation of treatment [2, 5]: 41 days
start of persistent remission following the first infusion [2, 5]: ≥ 24 h
persistence of resolution of PTSD symptoms before re-emergence ([2]; single dose, adults and children): over one
patient health questionnaire score after treatment ([2]; six 1-hour infusions, mean final dose 163.83 mg, reduced from 18.5): 9.5
PTSD checklist for DSM-5 after treatment ([2]; six 1-hour infusions, mean final dose 163.83 mg, reduced from 56.2): 31.3

N[C@@]1(c2ccccc2Cl)CCC[C@@H](O)C1=O [(2R,6R)-HNK, 2R,6R-hydroxynorketamine]
impairment of gait function (gait function): does not impair gait function significantly
antinociceptive effects after a single injection [3]: Antinociceptive effects
persistence of analgesic effects following administration [4]: up to five
antinociceptive effects on thermal nociception (latency to lick a hind paw) [1]: long-lasting antinociceptive effects

O=C1CC[C@@]2(O)[C@H]3Cc4ccc(O)c5c4[C@@]2(CCN3CC2CC2)[C@H]1O5 [naltrexone]
block of the antinociceptive effects of (2R,6R)-HNK by antagonist pretreatment [1]: failed to block

N[C@]1(c2ccccc2Cl)CCC[C@H](O)C1=O [(2S,6S)-HNK]
antinociceptive effects on thermal nociception (latency to lick a hind paw) [1]: not extended
